Assay results from patent publication US20240207410A1, “STABILIZED LIQUID COMPOSITIONS COMPRISING A LEVODOPA-TYROSINE CONJUGATE AND USES THEREOF” (NeuroDerm, Ltd., priority 2021, published 2024).
Where a SMILES comes first, the peptide text is derived from it. [ ]: non-standard residue; d: D form. Dopa = N[C@@H](Cc1ccc(O)c(O)c1)C(=O)O

Assays:
red blood cells (RBC) [1] = assay: Blood/plasma ratio, partitioning into red blood cells, rat blood ex vivo; type: in vitro ADME
red blood cells (RBC) [2] = assay: Blood/plasma ratio, partitioning into red blood cells, human blood ex vivo; type: in vitro ADME; conditions: human blood
[3] = Maximal Tolerated Dose (MTD), bolus SC; type: in vivo; conditions: in vivo; study MTD Exp 001, Rat/SD, bolus SC, 90, 150, 300, 625 mg/kg
Procedure: (§1) In vivo non-clinical safety studies were conducted in both the rat and minipig. Additionally, an assessment of the local infusion site reaction of LD-Tyr was performed as part of a PK study in domestic pigs.

Rat/SD = assay: Maximal Tolerated Dose (MTD), bolus SC; type: in vivo; conditions: study MTD Exp 001, Rat/SD, bolus SC, highest dose (625 mg/kg), males
Procedure: as §1

Minipig/Göttingen = assay: Local safety, 24-hour SC infusion; type: in vivo
Procedure: as §1

Pig/domestic = assay: Local infusion site reaction as part of a PK study (ND 2-20-102); type: in vivo; conditions: study ND 2-20-102, 200 mg/mL at 9 mL (1800 mg/day)
Procedure: as §1

[4] = Effect of various additives on stability of a 20% LD-Tyrosine-L-Arginine based formulation; type: physicochemical
in vivo = conditions: female, pig, sc, analyte LD-Tyr
Procedure: A series of PK studies was completed in domestic pigs using several LD-Tyr formulations, as detailed in Table 26, and dosing regimens, as detailed in Table 27. The PK profile of LD-Tyr as well as the LD resulting therefrom was determined following 18-hour continuous SC infusion to female domestic pigs. Each formulation was administered at one infusion site per animal using a Crono-ND infusion pump (Canè SpA Medical Technology, Rivoli, Italy) connected to an infusion set (Accu-chek®, FlexLink, Roche).
(§2) Blood samples for the determination of LD-Tyr and LD plasma levels were collected from the pigs at the following timepoints: […]

[5] = PK of high concentration LD-Tyr formulations comprising TRIS, 0.5% CD (Example 15B); type: in vivo, domestic pig; conditions: female, pig, plasma, sc, analyte LD-Tyr, 18-hour continuous SC infusion
Procedure: A series of PK and local-tox studies was completed in domestic pigs using several high concentration LD-Tyr formulations comprising 0.5% CD and varying amounts of TRIS, as detailed in Table 33, and dosing regimens, as detailed in Table 34. The PK profile of LD-Tyr as well as the LD resulting therefrom was determined following 18-hour continuous SC infusion to female domestic pigs. Each formulation was administered at one infusion site per animal using a Crono-ND infusion pump (Canè SpA Medical Technology, Rivoli, Italy) connected to an infusion set (Accu-chek®, FlexLink, Roche).
as §2

[6] = PK of formulations with varying concentrations of LD-Tyr and CD (Example 16); type: in vivo, domestic pig; conditions: female, pig, plasma, sc, analyte LD-Tyr, 18-hour continuous SC infusion
Procedure: (§3) A series of PK and local site reaction studies was completed in domestic pigs using several concentrations LD-Tyr formulations comprising varying amounts of CD, as detailed in Table 37, and dosing regimens, as detailed in Table 38. The PK profile of LD-Tyr, as well as the LD resulting therefrom, was determined following 18-hour continuous SC infusion to female domestic pigs. Each formulation was administered at one infusion site per animal using a Crono-ND infusion pump (Canè SpA Medical Technology, Rivoli, Italy) connected to an infusion set (Accu-chek®, FlexLink, Roche).
as §2

[7] = PK following bolus and 2-hr continuous SC administration of 30% LD-Tyr (Example 18); type: in vivo, domestic pig; conditions: pig; for AUC(0-t) / Cmax / Tmax: female, plasma, sc, analyte LD-Tyr, 30/1 % w/v, bolus and 2-hr continuous SC administration
Procedure: as §3, with “local-tox” for “local site reaction”, “42,” for “37,”, “43. […]” for “38. The PK profile of LD-Tyr, as well as the LD resulting therefrom, was determined following 18-hour continuous SC infusion to female domestic pigs.”
Blood samples for the determination of LD-Tyr and LD plasma levels were collected from the pigs at the following timepoints:
0 (pre-dose), 10 min (end of bolus), 15 min, 30 min, 45 min, 60 min, 75 min, 90 min, 120 min and 240 min following the beginning of the bolus administration.

[8] = PK of LD following 18-hr SC administration of LD-Tyr in a formulation comprising ethanol (Example 22); type: in vivo, domestic pig; conditions: for AUC(0-t) / Cmax / Tmax: pig, plasma, analyte LD-Tyr, 18-hr continuous SC, formulation comprising ethanol
Procedure: The objective of this study is to determine the pharmacokinetics (PK) of LD-Tyr following an 18-hr continuous subcutaneous (SC) administration in domestic pigs of a formulation comprising 30& LD-Tyr and ethanol. Table 53 provides the LD-Tyr formulation tested in this study.
Animals were dosed with 2700 or 5400 mg of LD-Tyr in the formulation of Table 53 in an 18-hr continuous subcutaneous administration in an infusion volume of 9 or 18 ml (9 mL×2 sites).

[9] = LD-Tyr/CD 30/0.5 % w/v, daily dose 2775/37.5 mg, n = 2
[10] = LD-Tyr/CD 37/0.5 % w/v, daily dose 2640/30 mg, n = 3
[11] = LD-Tyr/CD 44/0.5 % w/v, daily dose 2700/45 mg, n = 1
[12] = 2640 mg/day, LD-Tyr/CD 44/1 % w/v, daily dose 2640/60 mg, n = 4
[13] = 2700 mg/day, LD-Tyr/CD 30/0.5 % w/v, daily dose 2700/45 mg, n = 5
[14] = 2700 mg/day, LD-Tyr/CD 30/[…] w/v, daily dose 2700/135 mg, n = 5
[15] = bolus volume 0.7 mL, bolus dose 210/7 mg, daily dose 510/17 mg
[16] = bolus volume 1.2 mL, bolus dose 360/12 mg, daily dose 660/22 mg
[17] = bolus volume 1.7 mL, bolus dose 510/17 mg, daily dose 810/27 mg
[18] = 2700 mg, LD-Tyr/CD daily dose 2700/117 mg, n = 5
[19] = 5400 mg, LD-Tyr/CD daily dose 5400/234 mg, n = 3

With N[C@@H](Cc1ccc(O)c(O)c1)C(=O)N[C@@H](Cc1ccc(O)cc1)C(=O)O [LD-Tyr, levodopa-tyrosine (LD-Tyr) conjugate of the formula (II)] (H-[Dopa]-Tyr-OH) the “KRBC/PL versus time of incubation” value (red blood cells (RBC) [1]; rat blood) was “increased with the time of incubation”, the RBC binding (red blood cells (RBC) [1]; rat blood) was “limited RBC binding” and the “partition coefficient between RBC and plasma (KRBC/PL)” value (red blood cells (RBC) [1]; rat blood, 50, 150 and 2500 ng/mL) was “below five”. The RBC binding (red blood cells (RBC) [2]) was “no RBC binding”, the KRBC/PL (red blood cells (RBC) [2]; all measured) was “below one” and the MTD [3] was 300 mg/kg. For the same molecule, the Mortality (Rat/SD) was “Mortality (1/4 males)”, the “subchronic/chronic inflammation in the subcutis” value (Minipig/Göttingen; study 0NMR6, 120 mg/mL at 4.5 mL (540 mg/day)) was “minimal to mild” and the “tolerability (local effect, cutaneous ulcers)” value (from here on “tolerability”) (Minipig/Göttingen; study 0NMR6, 24-hour SC infusion, 120 mg/mL at 4.5 mL (540 mg/day)) was “well tolerated with no”. For the same molecule, the “chronic inflammation in the subcutis” value (Minipig/Göttingen; study 0NMR10, 130 mg/mL at 6 mL (780 mg/day)) was “minimal to moderate”, the “tolerability” value (Minipig/Göttingen; study 0NMR10, 24-hour SC infusion, 130 mg/mL at 6 mL (780 mg/day)) was “well tolerated with no” and the “tolerability” value (Minipig/Göttingen; study E0515, 24-hour SC infusion, 440, 370, 300, and 250 mg/mL (2640, 2775, 2700, and 2250 mg/day)) was “well tolerated with no”. The “subacute inflammation in the subcutis” value (Pig/domestic) was “minimal to mild”, the “solubility of the LD-Tyr (rank order of cosolvents)” value [4] was “DMA>Ethanol>PEG 300” and the Tmax (in vivo) was 10.4 h. It also gave an AUC(0-t) [5, 9] of 4800 ng·h/mL, a Cmax [5, 9] of 445 ng/mL and a Tmax [5, 9] of 10 h. It also gave an AUC(0-t) [5, 10] of 5600 ng·h/mL, a Cmax [5, 10] of 491 ng/mL and a Tmax [5, 10] of 15 h. The AUC(0-t) [5, 11] was 534 ng·h/mL, the Cmax [5, 11] was 49.6 ng/mL and the Tmax [5, 11] was 2 h. It also gave an AUC(0-t) [6, 12] of 8130 ng·h/mL, a Cmax [6, 12] of 738 ng/mL and a Tmax [6, 12] of 11.6 h. It also gave an AUC(0-t) [6, 13] of 5450 ng·h/mL, a Cmax [6, 13] of 453 ng/mL and a Tmax [6, 13] of 8.8 h. It also gave an AUC(0-t) [6, 14] of 13500 ng·h/mL, a Cmax [6, 14] of 986 ng/mL and a Tmax [6, 14] of 12.4 h. The AUC(0-t) [7, 15] was 1180 ng·h/mL, the Cmax [7, 15] was 573 ng/mL and the Tmax [7, 15] was 1.3 h. The AUC(0-t) [7, 16] was 1630 ng·h/mL, the Cmax [7, 16] was 933 ng/mL and the Tmax [7, 16] was 0.9 h. For the same molecule, the AUC(0-t) [7, 17] was 2430 ng·h/mL, the Cmax [7, 17] was 1350 ng/mL and the Tmax [7, 17] was 1.2 h. The “systemic exposure to LD versus bolus injection volume” value ([7]; in vivo) was “dose-proportional increase”, the dose proportionality ([8]; 2700 and 5400 mg, 18-hr continuous SC administration) was “dose proportionality” and the AUC(0-t) [8, 18] was 8210 ± 4120 ng·h/mL. The Cmax [8, 18] was 707 ± 283 ng/mL, the Tmax [8, 18] was 14 h and the AUC(0-t) [8, 19] was 21200 ± 8570 ng·h/mL. For the same molecule, the Cmax [8, 19] was 1610 ± 902 ng/mL and the Tmax [8, 19] was 14 h.
